# Measurements published in US20230183243A1, “HETEROARYL DERIVATIVES AND PHARMACEUTICAL COMPOSITION COMPRISING SAME AS ACTIVE INGREDIENT” (VORONOI INC., priority 2019, published 2023).
# Key:
# [1] = tested on: MDA-MB-231 cells; test: Inhibition of proliferation of triple-negative breast cancer cells, CellTiter-Glo; assay type: cell-based; conditions: Homo sapiens, 120 h; MDA-MB-231, cultured for 5 days
# Method in brief: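 MDA-MB-231 cells pre-cultured 24 h (5% CO2, 37 °C), then exposed to compound for 5 days at 12 three-fold dilutions, final 10 μM to 0.05 nM. Viability read by CellTiter-Glo luminescence after 10 min at 37 °C; growth inhibition calculated relative to untreated solvent-control cells.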
# [2] = tested on: SHP-77; test: Inhibition of proliferation of small cell lung cancer cells, CellTiter-Glo; assay type: cell-based; conditions: Homo sapiens, SHP77, 120 h; SHP-77, cultured for 5 days
# Method in brief: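 SHP-77 cells at 2,000–3,000 cells/well, cultured 24 h at 37° C, 5% CO2, then given 12 threefold compound dilutions, final 10 μM to 0.05 nM, for 5 days. Viability by CellTiter-Glo luminescence relative to solvent control. GI50 from concentration–response.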
# [3] = target: T1, TTK (Homo sapiens, UniProt P33981); test: TTK enzyme activity, ADP-Glo kinase assay; assay type: biochemical; design: purchased SignalChem T20-10G; conditions: purified human TTK, ATP 10 μM, 25° C., 2 hours
# T1 sequence (P33981 1-857): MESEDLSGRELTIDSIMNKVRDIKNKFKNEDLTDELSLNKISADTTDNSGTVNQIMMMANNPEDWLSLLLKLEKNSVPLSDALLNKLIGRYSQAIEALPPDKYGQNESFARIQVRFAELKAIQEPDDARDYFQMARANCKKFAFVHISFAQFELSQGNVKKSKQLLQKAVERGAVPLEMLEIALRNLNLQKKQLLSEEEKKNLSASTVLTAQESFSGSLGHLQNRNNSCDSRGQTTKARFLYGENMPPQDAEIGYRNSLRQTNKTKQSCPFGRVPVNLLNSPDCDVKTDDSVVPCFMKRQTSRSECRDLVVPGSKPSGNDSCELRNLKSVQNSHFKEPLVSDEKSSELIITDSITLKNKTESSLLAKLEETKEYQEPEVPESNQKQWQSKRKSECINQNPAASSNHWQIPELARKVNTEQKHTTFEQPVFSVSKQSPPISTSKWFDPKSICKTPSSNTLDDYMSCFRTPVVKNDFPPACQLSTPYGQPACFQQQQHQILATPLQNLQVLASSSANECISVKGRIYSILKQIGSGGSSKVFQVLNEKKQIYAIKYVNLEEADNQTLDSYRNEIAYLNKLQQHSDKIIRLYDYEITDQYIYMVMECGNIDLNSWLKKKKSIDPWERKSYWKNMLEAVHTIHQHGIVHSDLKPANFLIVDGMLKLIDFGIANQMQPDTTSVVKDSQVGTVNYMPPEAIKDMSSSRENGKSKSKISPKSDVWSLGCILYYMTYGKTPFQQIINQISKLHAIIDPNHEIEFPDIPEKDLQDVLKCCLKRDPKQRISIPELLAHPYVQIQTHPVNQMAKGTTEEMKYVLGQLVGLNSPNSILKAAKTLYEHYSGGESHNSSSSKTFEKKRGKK
# Method in brief: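 ADP-Glo read-out; percent inhibition at each compound concentration was relative to the solvent-only control. The reactions contained 25 ng enzyme, 0.2 μg substrate and 10 μM ATP in 40 mM Tris-HCl pH 7.4 with 20 mM MgCl2, 0.5 mg/mL BSA and 50 μM DTT, and ran 2 h at 25 °C.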
GI50 [1] [nM],GI50 [2] [nM],IC50 [3] [nM],Compound
< 100,< 100,50 to 200,"COc1cc(-c2c(C)noc2C)ccc1Nc1nc(NC2CCCCCC2)c2c(C#N)c[nH]c2n1 [Example 149, 4-(cycloheptylamino)-2-((4-(3,5-dimethylisoxazol-4-yl)-2-methoxyphenyl)amino)-7H-pyrrolo[2,3-d] pyrimidine-5-carbonitrile]"
< 100,< 100,50 to 200,"Cn1cc(-c2ccc(Nc3nc(NC4CCCCCC4)c4c(C#N)c[nH]c4n3)c3c2OCCO3)cn1 [Example 150, 4-(cycloheptylamino)-2-((8-(1-methyl-1H-pyrazol-4-yl)-2,3-dihydrobenzo[b][1,4]dioxin-5-yl)amino)-7H-pyrrolo[2,3-d] pyrimidine-5-carbonitrile]"
< 100,< 100,< 50,"N#Cc1c[nH]c2nc(Nc3ccc(N4CCCC4=O)c4c3OCCO4)nc(NC3CCCCCC3)c12 [Example 151, 4-(cycloheptylamino)-2-((8-(2-oxopyrrolidin-1-yl)-2,3-dihydrobenzo[b][1,4]dioxin-5-yl)amino)-7H-pyrrolo[2,3-d] pyrimidine-5-carbonitrile]"
< 100,< 100,50 to 200,"COc1cc(-c2ccnn2C)ccc1Nc1nc(NC2CCCC(F)(F)C2)c2c(C#N)c[nH]c2n1 (stereo not drawn) [Example 152, 4-((3,3-difluorocyclohexyl)amino)-2-((2-methoxy-4-(1-methyl-1H-pyrazol-5-yl)phenyl)amino)-7H-pyrrolo[2,3-d] pyrimidine-5-carbonitrile]"
< 100,< 100,50 to 200,Cn1nccc1-c1ccc(Nc2nc(NC3CCCC(F)(F)C3)c3c(C#N)c[nH]c3n2)c2c1OCCO2 (stereo not drawn) [Example 153]
< 100,< 100,< 50,"COc1cc(-c2nncn2C)ccc1Nc1nc(NC2CCCC(F)(F)C2)c2c(C#N)c[nH]c2n1 (stereo not drawn) [Example 154, 4-((3,3-difluorocyclohexyl)amino)-2-((2-methoxy-4-(4-methyl-4H-1,2,4-triazol-3-yl)phenyl)amino)-7H-pyrrolo[2,3-d] pyrimidine-5-carbonitrile]"
< 100,< 100,< 50,"COc1cc(N2CCCCS2(=O)=O)ccc1Nc1nc(NC2CCCC2)c2c(C#N)c[nH]c2n1 [Example 155, 4-(cyclopentylamino)-2-((4-(1,1-dioxido-1,2-thiazinan-2-yl)-2-methoxyphenyl)amino)-7H-pyrrolo[2,3-d] pyrimidine-5-carbonitrile]"
< 100,< 100,< 50,"N#Cc1c[nH]c2nc(Nc3ccc(N4CCCCS4(=O)=O)cc3)nc(NC3CCCC3)c12 [Example 156, 4-(cyclopentylamino)-2-((4-(1,1-dioxido-1,2-thiazinan-2-yl)phenyl)amino)-7H-pyrrolo[2,3-d] pyrimidine-5-carbonitrile]"
< 100,< 100,< 50,"COc1cc(N2CCCS2(=O)=O)ccc1Nc1nc(NC2CCCC2)c2c(C#N)c[nH]c2n1 [Example 157, 4-(cyclopentylamino)-2-((4-(1,1-dioxidoisothiazolidin-2-yl)-2-methoxyphenyl)amino)-7H-pyrrolo[2,3-d] pyrimidine-5-carbonitrile]"
< 100,< 100,< 50,"N#Cc1c[nH]c2nc(Nc3ccc(N4CCCS4(=O)=O)cc3)nc(NC3CCCC3)c12 [Example 158, 4-(cyclopentylamino)-2-((4-(1,1-dioxidoisothiazolidin-2-yl)phenyl)amino)-7H-pyrrolo[2,3-d] pyrimidine-5-carbonitrile]"
< 100,< 100,< 50,"Cn1cc(-c2ccc(Nc3nc(NC4CCC(F)(F)C4)c4c(C#N)c[nH]c4n3)c3c2OCCO3)cn1 (stereo not drawn) [Example 159, 4-((3,3-difluorocyclopentyl)amino)-2-((8-(1-methyl-1H-pyrazol-4-yl)-2,3-dihydrobenzo[b][1,4]dioxin-5-yl)amino)-7H-pyrrolo[2,3-d] pyrimidine-5-carbonitrile]"
< 100,< 100,< 50,"COc1cc(Nc2nc(NC3CCOC(C)(C)C3)c3c(C#N)c[nH]c3n2)ccc1-c1ccnn1C (stereo not drawn) [Example 162, 4-((2,2-dimethyltetrahydro-2H-pyran-4-yl)amino)-2-((3-methoxy-4-(1-methyl-1H-pyrazol-5-yl)phenyl)amino)-7H-pyrrolo[2,3-d] pyrimidine-5-carbonitrile]"
< 100,< 100,< 50,"COc1cc(N2CCCCS2(=O)=O)ccc1Nc1nc(NC2CCOCC2)c2c(C#N)c[nH]c2n1 [Example 163, 2-((4-(1,1-dioxido-1,2-thiazinan-2-yl)-2-methoxyphenyl)amino)-4-((tetrahydro-2H-pyran-4-yl)amino)-7H-pyrrolo[2,3-d] pyrimidine-5-carbonitrile]"
< 100,< 100,< 50,"N#Cc1c[nH]c2nc(Nc3ccc(N4CCCCS4(=O)=O)cc3)nc(NC3CCOCC3)c12 [Example 164, 2-((4-(1,1-dioxido-1,2-thiazinan-2-yl)phenyl)amino)-4-((tetrahydro-2H-pyran-4-yl)amino)-7H-pyrrolo[2,3-d] pyrimidine-5-carbonitrile]"
< 100,< 100,< 50,"COc1cc(N2CCCS2(=O)=O)ccc1Nc1nc(NC2CCOCC2)c2c(C#N)c[nH]c2n1 [Example 165, 2-((4-(1,1-dioxidoisothiazolidin-2-yl)-2-methoxyphenyl)amino)-4-((tetrahydro-2H-pyran-4-yl)amino)-7H-pyrrolo[2,3-d] pyrimidine-5-carbonitrile]"
< 100,< 100,< 50,"N#Cc1c[nH]c2nc(Nc3ccc(N4CCCS4(=O)=O)cc3)nc(NC3CCOCC3)c12 [Example 166, 2-((4-(1,1-dioxidoisothiazolidin-2-yl)phenyl)amino)-4-((tetrahydro-2H-pyran-4-yl)amino)-7H-pyrrolo[2,3-d] pyrimidine-5-carbonitrile]"
< 100,< 100,< 50,"COC[C@@H](C)Nc1nc(Nc2ccc(-n3ccnc3C)cc2OC)nc2[nH]cc(C#N)c12 [Example 167, (R)-2-((2-methoxy-4-(2-methyl-1H-imidazol-1-yl)phenyl)amino)-4-((1-methoxypropan-2-yl)amino)-7H-pyrrolo[2,3-d] pyrimidine-5-carbonitrile]"
< 100,< 100,< 50,"COC[C@@H](C)Nc1nc(Nc2ccc(-c3ccnn3C)cc2OC)nc2[nH]cc(C#N)c12 [Example 168, (R)-2-((2-methoxy-4-(1-methyl-1H-pyrazol-5-yl)phenyl)amino)-4-((1-methoxypropan-2-yl)amino)-7H-pyrrolo[2,3-d] pyrimidine-5-carbonitrile]"
< 100,< 100,< 50,COC[C@@H](C)Nc1nc(Nc2ccc(-c3cnn(C)c3)c3c2OCCO3)nc2[nH]cc(C#N)c12 [Example 169]
< 100,< 100,< 50,"N#Cc1c[nH]c2nc(Nc3cccc4c3OCCO4)nc(NC3CCOCC3)c12 [Example 170, 2-((2,3-dihydrobenzo[b][1,4]dioxin-5-yl)amino)-4-((tetrahydro-2H-pyran-4-yl)amino)-7H-pyrrolo[2,3-d] pyrimidine-5-carbonitrile]"
< 100,< 100,< 50,CC1(C)CC(Nc2nc(Nc3cccc4c3OCCO4)nc3[nH]cc(C#N)c23)CCO1 (stereo not drawn) [Example 171]
< 100,< 100,< 50,"Cn1nccc1-c1ccc(Nc2nc(NC3CCOC(C)(C)C3)c3c(C(F)(F)F)c[nH]c3n2)c2c1OCCO2 (stereo not drawn) [Example 172, N^4-(2,2-dimethyltetrahydro-2H-pyran-4-yl)-N^2-(8-(1-methyl-1H-pyrazol-5-yl)-2,3-dihydrobenzo[b][1,4]dioxin-5-yl)-5-(trifluoromethyl)-7H-pyrrolo[2,3-d] pyrimidine-2,4-diamine]"
